# Where a name gives a salt, the structure may show the parent alone.
# System: not given
# Conditions: not given
row,SMILES,melting point
1,Cc1noc([C@]23CC4CC(C2)[C@H](NC(=O)N2CCN(c5ccc(N6CCN(S(=O)(=O)C7CC7)CC6)cn5)c5ccccc52)C(C4)C3)n1,135 °C
2,NC(=O)C[C@]12CC3CC(C1)[C@H](NC(=O)N1CCN(c4ccc(N5CCN(S(=O)(=O)C6CC6)CC5)cn4)c4ccccc41)C(C3)C2,120 to 135 °C
3,CC(C)(C)N1CCN(c2ccc(N3CCN(C(=O)N[C@H]4C5CC6CC4C[C@@](C(O)C(F)(F)F)(C6)C5)c4ccccc43)nc2)CC1 (stereo partly drawn),192 to 196 °C
4,CC(C)(C)N1CCN(c2ccc(N3CCN(C(=O)N[C@H]4C5CC6CC4C[C@@](Cc4nn[nH]n4)(C6)C5)c4ccccc43)nc2)CC1,160 to 170 °C
5,CONC(=O)[C@]12CC3CC(C1)[C@H](NC(=O)N1CCN(c4ccc(N5CCN(S(=O)(=O)C6CC6)CC5)cn4)c4ccccc41)C(C3)C2,125 to 163 °C
6,CC(C)(C)N1CCN(c2ccc(N3CCN(C(=O)N[C@H]4C5CC6CC4C[C@@](NS(C)(=O)=O)(C6)C5)c4ccccc43)nc2)CC1,165 °C
7,CC(C)(C)N1CCN(c2ccc(N3CCN(C(=O)N[C@H]4C5CC6CC4C[C@@](CNS(C)(=O)=O)(C6)C5)c4ccccc43)nc2)CC1 (as salt: hydrochloride),252 °C
8,NC[C@]12CC3CC(C1)[C@H](NC(=O)N1CCN(c4ccc(N5CCN(S(=O)(=O)C6CC6)CC5)cn4)c4ccccc41)C(C3)C2 (as salt: hydrochloride),197 °C

# System: 11βHSD1 in the eyes
# Conditions: healthy volunteers, after seven days of treatment; cited from earlier work
row,SMILES,IOP is reduced by
1,CC1(C)[C@@H](OC(=O)CCC(=O)O)CC[C@]2(C)[C@H]3C(=O)C=C4[C@@H]5C[C@@](C)(C(=O)O)CC[C@]5(C)CC[C@@]4(C)[C@]3(C)CC[C@@H]12 [carbenoxolone],18%

# Reference: patent US8536173B2, “Tetrahydroquinoxaline urea derivatives as modulators of 11-B-hydroxysteroid dehydrogenase type I” (SANOFI, priority 2009, dated 2013)
